This note sets out measurements from patent US20100075957A1, “AMINODIHYDROTHIAZINE DERIVATIVES SUBSTITUTED WITH A CYCLIC GROUP” (SHIONOGI & CO., LTD., priority 2007, published 2010).

In the first assay the target is T1, Recombinant human BACE-1 (Homo sapiens, UniProt P56817).
T1 construct: purchased R&D Systems
T1 sequence (P56817 46-501): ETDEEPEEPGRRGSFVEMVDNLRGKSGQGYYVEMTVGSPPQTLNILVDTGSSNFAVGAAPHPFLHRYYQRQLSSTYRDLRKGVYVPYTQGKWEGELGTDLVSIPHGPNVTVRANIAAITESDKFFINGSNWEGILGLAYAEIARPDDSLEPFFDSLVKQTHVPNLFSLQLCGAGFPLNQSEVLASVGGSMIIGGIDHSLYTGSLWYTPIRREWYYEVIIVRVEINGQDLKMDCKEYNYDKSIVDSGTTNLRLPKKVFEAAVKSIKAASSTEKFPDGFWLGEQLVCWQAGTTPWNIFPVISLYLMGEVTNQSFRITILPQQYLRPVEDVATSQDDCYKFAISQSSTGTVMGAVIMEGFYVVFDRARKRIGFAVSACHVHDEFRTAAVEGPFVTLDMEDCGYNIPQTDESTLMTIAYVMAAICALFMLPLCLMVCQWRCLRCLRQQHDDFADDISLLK
Description: Assay of β-secretase-inhibiting activity.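 Further: substrate is a peptide carrying biotin and europium cryptate, after the enzyme reaction, Streptavidin-XL665 is added and incubated 1 h at 30 °C before fluorescence reading.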 Type of assay: biochemical. The following applies: Recombinant human BACE-1 7.4 nM, substrate peptide 18 nM, pH 5.0, 30° C., 3 hours; Table 139; read-out: IC50.
With `CCCOc1cnc(C(=O)Nc2cccc([C@]3(C)CCSC(N)=N3)c2)cn1` [Compound 72], the IC50 was 110 nM.

As for `CC#CCCOc1cnc(C(=O)Nc2cccc([C@]3(C)CCSC(N)=N3)c2)cn1` [Compound 106], the IC50 came out at 120 nM. For the compound `C[C@@]1(c2cc(NC(=O)CCc3cccc(N)c3)ccc2F)CCSC(N)=N1` [Compound 150], the IC50 turned out to be 2480 nM. For the compound `Cc1ccc(NC(=O)c2cnc(Cl)cn2)cc1C1(C)CCSC(N)=N1` (stereo not shown) [Compound 141], the IC50 stood at 120 nM. Consider `C[C@@]1(c2cccc(NC(=O)c3cnc(OCC(F)F)cn3)c2)CCSC(N)=N1` [Compound 92], for which the IC50 was 80 nM. For `Cc1cc(SCC(=O)Nc2ccc(F)c([C@]3(C)CCSC(N)=N3)c2)nc(N)n1` [Compound 151], the IC50 is 6770 nM. In the case of `CC(C)COc1cnc(C(=O)Nc2cccc([C@]3(C)CCSC(N)=N3)c2)cn1` [Compound 87], the IC50 is 90 nM. For `CCCCOc1cnc(C(=O)Nc2cccc(C3(C)CCSC(N)=N3)c2)cn1` (stereo not shown) [Compound 71], the IC50 was 160 nM.

The same assay, now with this note: Recombinant human BACE-1 7.4 nM, substrate peptide 18 nM, pH 5.0, 30° C., 3 hours; Table 140; read-out: IC50.
Take `COc1cnc(C(=O)Nc2cccc([C@]3(C)CCSC(N)=N3)n2)cn1` [Compound 589]: the IC50 is 60 nM. The same measure, in the same setting: with `Cc1cnc(C(=O)Nc2ccnc([C@]3(C)CCSC(N)=N3)c2)cn1` [Compound 551] the figure was 20 nM.

Turning to `Cc1nnsc1C(=O)Nc1ccc(F)c([C@]2(C)CCSC(N)=N2)c1` [Compound 481], the IC50 stood at 50 nM.

As for `COCCOc1cnc(C(=O)Nc2cc([C@]3(C)CCSC(N)=N3)ccn2)cn1` [Compound 591], the IC50 is 100 nM. In the case of `Cc1nc(C(=O)Nc2ccc(F)c([C@]3(C)CCSC(N)=N3)c2)cs1` [Compound 505], the IC50 was determined as 30 nM. Turning to `Cc1cnc(C(=O)Nc2cc([C@]3(C)CCSC(N)=N3)ccn2)cn1` [Compound 593], the IC50 came out at 280 nM.

Take `Cc1nc(C(=O)Nc2cncc([C@]3(C)CCSC(N)=N3)c2)c(C)o1` [Compound 461]: the IC50 was determined as 30 nM.

The same assay, now with this note: Recombinant human BACE-1 7.4 nM, substrate peptide 18 nM, pH 5.0, 30° C., 3 hours; time-resolved fluorescence ratio 665/620; read-out: IC50 values (50% inhibitory concentration against the enzymatic activity).
Turning to `CC#CCOc1cnc(C(=O)Nc2ccc(C)c(C3(C)CCSC(N)=N3)c2)cn1` (stereo not shown) [Compound 142], the IC50 is at most 1000 nM. The same measure, in the same setting: with `CNCC#CCOc1ccc(C(=O)Nc2ccc(F)c([C@]3(C)CCSC(N)=N3)c2)nc1` [Compound 569] the figure was at most 1000 nM; with `CN1N=C(C(=O)Nc2ccc(F)c([C@]3(C)CCSC(N)=N3)c2)CCC1=O` [Compound 475], at most 1000 nM.

As to `Cc1nc(C(=O)Nc2ccc(F)c([C@]3(C)CCSC(N)=N3)c2)co1` [Compound 462], the IC50 is at most 1000 nM. With `Cc1csc(C(=O)Nc2cncc([C@]3(C)CCSC(N)=N3)c2)c1` [Compound 486], the IC50 was at most 1000 nM.

For the compound `C[C@@]1(c2cncc(NC(=O)c3ccc(Cl)cn3)c2)CCSC(N)=N1` [Compound 152], the IC50 was at most 1000 nM.

Consider `CC#CCOc1cnc(C(=O)Nc2cccc([C@]3(C)CCSC(N)=N3)c2)cn1` [Compound 91], for which the IC50 was at most 1000 nM.

On to `C[C@@]1(c2cc(NC(=O)c3cc4ccccc4s3)ccc2F)CCSC(N)=N1` [Compound 545], for which the IC50 is at most 1000 nM. Take `COc1cnc(C(=O)Nc2cccc([C@]3(C)CC(C)(C)SC(N)=N3)c2)cn1` [Compound 694]: the IC50 was at most 1000 nM. As to `COc1cnc(C(=O)Nc2ccnc([C@]3(C)CCSC(N)=N3)c2)c(N)n1` [Compound 691], the IC50 was at most 1000 nM. With `Cc1noc(C)c1C(=O)Nc1ccc(F)c([C@]2(C)CCSC(N)=N2)c1` [Compound 500], the IC50 was at most 1000 nM. Regarding `CCOc1cnc(C(=O)Nc2ccc(F)c([C@]3(C)CCSC(N)=N3)c2)cn1` [Compound 134], the IC50 is at most 1000 nM. On to `COCC#Cc1cnc(C(=O)Nc2ccc(F)c([C@]3(C)CCSC(N)=N3)c2)cn1` [Compound 116], for which the IC50 is at most 1000 nM. Same read-out and setting: the figure for `CN(C)CC#CCOc1ccc(C(=O)Nc2ccc(F)c([C@]3(C)CCSC(N)=N3)c2)nc1` [Compound 570] is at most 1000 nM; for `Cc1cc(C(=O)Nc2cncc([C@]3(C)CCSC(N)=N3)c2)n(C)n1` [Compound 476] it is at most 1000 nM; for `COc1cscc1C(=O)Nc1ccc(F)c([C@]2(C)CCSC(N)=N2)c1` [Compound 524] it is at most 1000 nM. Same read-out and setting: the figure for `Cc1nc(C(=O)Nc2cnc(Cl)c([C@]3(C)CCSC(N)=N3)c2)c(C)o1` [Compound 586] is at most 1000 nM.

Consider `Cc1cc(C(=O)Nc2cccc([C@]3(C)CCSC(N)=N3)c2)[nH]n1` [Compound 5], for which the IC50 is at most 1000 nM. Take `C[C@@]1(c2cc(NC(=O)c3cnc(Cl)cn3)ccc2F)CCSC(N)=N1` [Compound 78]: the IC50 is at most 1000 nM. On the same count and under the same terms, the figure for `CC/C=C\COc1cnc(C(=O)Nc2cccc([C@]3(C)CCSC(N)=N3)c2)cn1` [Compound 108] is at most 1000 nM. Same read-out and setting: with `C[C@@]1(c2cc(NC(=O)c3ncc(C(F)(F)F)cc3Cl)ccn2)CCSC(N)=N1` [Compound 678] the figure was at most 1000 nM; with `CC1(c2cc(NC(=O)c3cnc(Cl)cn3)cc(F)c2F)CCSC(N)=N1` (stereo not shown) [Compound 144], at most 1000 nM; with `C[C@@]1(c2cc(NC(=O)c3ccc(OCc4ccco4)cn3)ccc2F)CCSC(N)=N1` [Compound 112], at most 1000 nM. On to `C[C@@]1(c2cc(NC(=O)c3ncccc3F)ccc2F)CCSC(N)=N1` [Compound 510], for which the IC50 was at most 1000 nM. On the same count and under the same terms, with `C[C@@]1(c2cncc(NC(=O)c3cc(Br)cs3)c2)CCSC(N)=N1` [Compound 516] the figure was at most 1000 nM; with `COc1cnc(C(=O)Nc2ccc(F)c([C@]3(C)CCSC(N)=N3)c2)c(F)c1` [Compound 512], at most 1000 nM; with `COc1cnc(C(=O)Nc2ccc(F)c([C@@]3(C)N=C(N)SCC3(F)F)c2)cn1` [Compound 673], at most 1000 nM. In the case of `Cc1cc(C(=O)Nc2ccc(F)c([C@]3(C)CCSC(N)=N3)c2)n(C)n1` [Compound 463], the IC50 was at most 1000 nM.

Take `Cc1cc(C(=O)Nc2cncc([C@]3(C)CCSC(N)=N3)c2)on1` [Compound 474]: the IC50 was at most 1000 nM.

As for `CC1(C)C[C@@](C)(c2cc(NC(=O)c3ncc(Cl)cc3Cl)ccn2)N=C(N)S1` [Compound 686], the IC50 was at most 1000 nM. For `CC#CCOc1cnc(C(=O)Nc2ccc(F)c([C@]3(C)CCSC(N)=N3)c2)cn1` [Compound 100], the IC50 is at most 1000 nM. For the compound `CSc1ccc(C(=O)Nc2cccc([C@]3(C)CCSC(N)=N3)c2)nc1` [Compound 33], the IC50 was at most 1000 nM. Same read-out and setting: with `CC1(C)C[C@@](C)(c2cc(NC(=O)c3ncc(C(F)(F)F)cc3Cl)ccn2)N=C(N)S1` [Compound 656] the figure was at most 1000 nM.

`Cc1ccoc1C(=O)Nc1ccc(F)c([C@]2(C)CCSC(N)=N2)c1` [Compound 518]: the IC50 was at most 1000 nM. Regarding `COc1cc(C(=O)Nc2cccc([C@]3(C)CCSC(N)=N3)c2)n(C)n1` [Compound 18], the IC50 was at most 1000 nM. The same measure, in the same setting: the figure for `C[C@@]1(c2cc(NC(=O)c3nccnc3Cl)ccc2F)CCSC(N)=N1` [Compound 84] is at most 1000 nM. Turning to `CSc1ccc(NC(=O)c2cnc(C)cn2)cc1[C@]1(C)CCSC(N)=N1` [Compound 21], the IC50 was at most 1000 nM.

Turning to `Cc1cnc(C(=O)Nc2ccc(F)c([C@@]3(C)N=C(N)SCC3(C)C)c2)cn1` [Compound 649], the IC50 is at most 1000 nM.

Consider `COc1cnc(C(=O)Nc2cncc([C@]3(C)CCSC(N)=N3)c2)c(N)n1` [Compound 555], for which the IC50 is at most 1000 nM.

In the case of `COc1cnc(C(=O)Nc2cnc(Cl)c([C@]3(C)CCSC(N)=N3)c2)cn1` [Compound 582], the IC50 was at most 1000 nM. Regarding `Cc1ccsc1C(=O)Nc1cncc([C@]2(C)CCSC(N)=N2)c1` [Compound 487], the IC50 is at most 1000 nM.

On to `COc1cnc(C(=O)Nc2ccc(F)c([C@@]3(C)N=C(N)SCC3(C)C)c2)cn1` [Compound 647], for which the IC50 is at most 1000 nM. On to `C[C@@]1(c2cc(NC(=O)c3cc4cccnc4s3)ccc2F)CCSC(N)=N1` [Compound 539], for which the IC50 was at most 1000 nM. For the compound `C[C@@]1(c2cncc(NC(=O)c3ccc(Cl)cn3)n2)CCSC(N)=N1` [Compound 581], the IC50 was at most 1000 nM. The same measure, in the same setting: with `C[C@@]1(c2cc(NC(=O)c3cnc(-c4ccc[nH]4)cn3)ccc2F)CCSC(N)=N1` [Compound 509] the figure was at most 1000 nM. Turning to `C[C@@]1(c2cccc(NC(=O)c3ccc(OCc4ccccc4)cn3)c2)CCSC(N)=N1` [Compound 102], the IC50 was at most 1000 nM. Turning to `COc1ccc(NC(=O)c2cnc(C)cn2)cc1[C@]1(C)CCSC(N)=N1` [Compound 32], the IC50 was at most 1000 nM. On the same count and under the same terms, the figure for `Cc1nc(C(=O)Nc2ccc(F)c([C@]3(C)CCSC(N)=N3)c2)c(C)o1` [Compound 554] is at most 1000 nM.

For `CSc1ccc(C(=O)Nc2cncc([C@]3(C)CCSC(N)=N3)c2)s1` [Compound 493], the IC50 is at most 1000 nM. Turning to `CC#CCOc1cnc(C(=O)Nc2cc([C@]3(C)CCSC(N)=N3)c3oc(C)cc3c2)cn1` [Compound 469], the IC50 was at most 1000 nM. For the compound `COCc1ccc(C(=O)Nc2ccc(F)c([C@]3(C)CCSC(N)=N3)c2)o1` [Compound 522], the IC50 is at most 1000 nM. On to `CSc1cnc(C(=O)Nc2ccc(F)c([C@]3(C)CCSC(N)=N3)c2)cn1` [Compound 77], for which the IC50 is at most 1000 nM. Regarding `C#CCOc1cnc(C(=O)Nc2cccc([C@]3(C)CCSC(N)=N3)c2)cn1` [Compound 103], the IC50 is at most 1000 nM.

As for `Cc1ncsc1C(=O)Nc1ccc(F)c([C@]2(C)CCSC(N)=N2)c1` [Compound 506], the IC50 is at most 1000 nM.

Regarding `CCn1nc(C)cc1C(=O)Nc1cncc([C@]2(C)CCSC(N)=N2)c1` [Compound 479], the IC50 was at most 1000 nM. As to `C#CCOc1cnc(C(=O)Nc2ccc(F)c([C@@]3(C)N=C(N)SCC34CC4)c2)cn1` [Compound 676], the IC50 is at most 1000 nM.

In the case of `COc1cnc(C(=O)Nc2cccc([C@]3(C)CCSC(N)=N3)c2)cn1` [Compound 29], the IC50 is at most 1000 nM. Take `C[C@@]1(c2cc(NC(=O)c3nccnc3C(N)=O)ccc2F)CCSC(N)=N1` [Compound 157]: the IC50 was at most 1000 nM.
